Results on two compounds are retold here after patent publication US12133936B2, “Surgical system and methods of use” (priority 2021, dated 2024).

One series deals with myofibroblast formation. To be noted: Ajmal et al. (2003); cited from earlier work.
For series [1] the following is noted: in vivo. From the text: (§1) However, in some embodiments, however, higher doses of tranexamic acid are used for topical applications to account for tranexamic acid being widely distributed throughout the extracellular and intracellular compartments when given preoperatively.
In the next series the test system is fibrinolysis. Put plainly: prevention / reversal of fibrinolysis. Conditions: one tenth of the doses used in the non-GLP acute porcine study.
Source text: as §1

SMILES strings stand for the structures.

`O=S(=O)([O-])CCS.[Na+]` [MESNA, sodium 2-mercaptoethane sulfonate]: the myofibroblast formation entry in the series with myofibroblast formation is given as “diminish myofibroblast formation”.
For `NC[C@H]1CC[C@H](C(=O)O)CC1` [tranexamic acid, trans-4-(aminomethyl)cyclohexanecarboxylic acid], the “time to reach plasma concentrations” value in series [1] was 5 to 15 min. Besides, the reversing fibrinolysis entry in the series on fibrinolysis is “effective in reversing fibrinolysis”.
